Values after ≈ are worked out from the molar mass of the structure shown.
Key:
[1] = tested on: Escherichia coli K-12 R388; assay: Antibacterial MIC, standard serial dilution; format: cell-based; conditions: nutrient agar, 37° C., 17 hours, as free base
Salmonella typhi T-63 = assay: Antibacterial MIC, standard serial dilution; format: cell-based; conditions: nutrient agar, 37° C., 17 hours, as free base
[2] = tested on: Escherichia coli K-12 ML1410; assay: Antibacterial MIC, standard serial dilution; format: cell-based; conditions: nutrient agar, 37° C., 17 hours, as free base
[3] = tested on: Pseudomonas aeruginosa TI-13; assay: Antibacterial MIC, standard serial dilution; format: cell-based; conditions: nutrient agar, 37° C., 17 hours, as free base
[4] = tested on: Shigella dysenteriae JS11910; assay: Antibacterial MIC, standard serial dilution; format: cell-based; conditions: nutrient agar, 37° C., 17 hours, as free base
Serratia sp. SOU = assay: Antibacterial MIC, standard serial dilution; format: cell-based; conditions: nutrient agar, 37° C., 17 hours, as free base
Escherichia coli JR225 = assay: Antibacterial MIC, standard serial dilution; format: cell-based; conditions: nutrient agar, 37° C., 17 hours, as free base
[5] = tested on: Pseudomonas aeruginosa 99; assay: Antibacterial MIC, standard serial dilution; format: cell-based; conditions: nutrient agar, 37° C., 17 hours, as free base
[6] = tested on: Pseudomonas aeruginosa PST1; assay: Antibacterial MIC, standard serial dilution; format: cell-based; conditions: nutrient agar, 37° C., 17 hours, as free base
[7] = tested on: Klebsiella pneumoniae 22#3038; assay: Antibacterial MIC, standard serial dilution; format: cell-based; conditions: nutrient agar, 37° C., 17 hours, as free base
Serratia marcescens = assay: Antibacterial MIC, standard serial dilution; format: cell-based; conditions: nutrient agar, 37° C., 17 hours, as free base
[8] = tested on: Corynebacterium bovis 1810; assay: Antibacterial MIC, standard serial dilution; format: cell-based; conditions: nutrient agar, 37° C., 17 hours, as free base
Proteus vulgaris 0X19 = assay: Antibacterial MIC, standard serial dilution; format: cell-based; conditions: nutrient agar, 37° C., 17 hours, as free base
Providencia sp. Pv16 = assay: Antibacterial MIC, standard serial dilution; format: cell-based; conditions: nutrient agar, 37° C., 17 hours, as free base
[9] = tested on: Escherichia coli K-12 J5R11-2; assay: Antibacterial MIC, standard serial dilution; format: cell-based; conditions: nutrient agar, 37° C., 17 hours, as free base
[10] = tested on: Bacillus cereus ATCC 10702; assay: Antibacterial MIC, standard serial dilution; format: cell-based; conditions: nutrient agar, 37° C., 17 hours, as free base
Escherichia coli K-12 = assay: Antibacterial MIC, standard serial dilution; format: cell-based; conditions: nutrient agar, 37° C., 17 hours, as free base
[11] = tested on: Staphylococcus aureus Smith; assay: Antibacterial MIC, standard serial dilution; format: cell-based; conditions: nutrient agar, 37° C., 17 hours, as free base
[12] = tested on: Staphylococcus epidermidis 109; assay: Antibacterial MIC, standard serial dilution; format: cell-based; conditions: nutrient agar, 37° C., 17 hours, as free base
[13] = tested on: Staphylococcus aureus FDA 209P; assay: Antibacterial MIC, standard serial dilution; format: cell-based; conditions: nutrient agar, 37° C., 17 hours, as free base
Bacillus anthracis = format: cell-based; conditions: nutrient agar, 37° C., 17 hours, as free base
[14] = tested on: Pseudomonas aeruginosa GN315; assay: Antibacterial MIC, standard serial dilution; format: cell-based; conditions: nutrient agar, 37° C., 17 hours, as free base
[15] = tested on: Bacillus subtilis PCI 219; assay: Antibacterial MIC, standard serial dilution; format: cell-based; conditions: nutrient agar, 37° C., 17 hours, as free base
[16] = tested on: Klebsiella pneumoniae PCI602; assay: Antibacterial MIC, standard serial dilution; format: cell-based; conditions: nutrient agar, 37° C., 17 hours, as free base
[17] = tested on: Pseudomonas aeruginosa A3; assay: Antibacterial MIC, standard serial dilution; format: cell-based; conditions: nutrient agar, 37° C., 17 hours, as free base
[18] = tested on: Escherichia coli JR66/W677; assay: Antibacterial MIC, standard serial dilution; format: cell-based; conditions: nutrient agar, 37° C., 17 hours, as free base
[19] = tested on: Staphylococcus aureus Ap01; assay: Antibacterial MIC, standard serial dilution; format: cell-based; conditions: nutrient agar, 37° C., 17 hours, as free base
[20] = tested on: Escherichia coli K-12 ML1629; assay: Antibacterial MIC, standard serial dilution; format: cell-based; conditions: nutrient agar, 37° C., 17 hours, as free base
Serratia sp. 4 = assay: Antibacterial MIC, standard serial dilution; format: cell-based; conditions: nutrient agar, 37° C., 17 hours, as free base
[21] = tested on: Pseudomonas aeruginosa H11; assay: Antibacterial MIC, standard serial dilution; format: cell-based; conditions: nutrient agar, 37° C., 17 hours, as free base
Proteus rettgeri GN466 = assay: Antibacterial MIC, standard serial dilution; format: cell-based; conditions: nutrient agar, 37° C., 17 hours, as free base
Sarcina lutea PCI 1001 = assay: Antibacterial MIC, standard serial dilution; format: cell-based; conditions: nutrient agar, 37° C., 17 hours, as free base
Escherichia coli W677 = assay: Antibacterial MIC, standard serial dilution; format: cell-based; conditions: nutrient agar, 37° C., 17 hours, as free base
Escherichia coli NIHJ = assay: Antibacterial MIC, standard serial dilution; format: cell-based; conditions: nutrient agar, 37° C., 17 hours, as free base
[22] = tested on: Pseudomonas maltophilia GN 907; assay: Antibacterial MIC, standard serial dilution; format: cell-based; conditions: nutrient agar, 37° C., 17 hours, as free base
[23] = tested on: Pseudomonas aeruginosa H9; assay: Antibacterial MIC, standard serial dilution; format: cell-based; conditions: nutrient agar, 37° C., 17 hours, as free base
[24] = tested on: Micrococcus flavus FDA 16; assay: Antibacterial MIC, standard serial dilution; format: cell-based; conditions: nutrient agar, 37° C., 17 hours, as free base
Providencia sp. 2991 = assay: Antibacterial MIC, standard serial dilution; format: cell-based; conditions: nutrient agar, 37° C., 17 hours, as free base
[25] = tested on: Pseudomonas aeruginosa 21-75; assay: Antibacterial MIC, standard serial dilution; format: cell-based; conditions: nutrient agar, 37° C., 17 hours, as free base
Shigella sonnei JS11746 = assay: Antibacterial MIC, standard serial dilution; format: cell-based; conditions: nutrient agar, 37° C., 17 hours, as free base
bacteria = conditions: in words; earlier work; cited from earlier work
Proteus rettgeri GN311 = assay: Antibacterial MIC, standard serial dilution; format: cell-based; conditions: nutrient agar, 37° C., 17 hours, as free base
[26] = tested on: Bacillus subtilis NRRL B-558; assay: Antibacterial MIC, standard serial dilution; format: cell-based; conditions: nutrient agar, 37° C., 17 hours, as free base
[27] = tested on: Escherichia coli K-12 ML1630; assay: Antibacterial MIC, standard serial dilution; format: cell-based; conditions: nutrient agar, 37° C., 17 hours, as free base
[28] = tested on: Salmonella enteritidis 1891; assay: Antibacterial MIC, standard serial dilution; format: cell-based; conditions: nutrient agar, 37° C., 17 hours, as free base
[29] = tested on: Pseudomonas aeruginosa ROS 134/PU21; assay: Antibacterial MIC, standard serial dilution; format: cell-based; conditions: nutrient agar, 37° C., 17 hours, as free base
[30] = tested on: Pseudomonas aeruginosa B-13; assay: Antibacterial MIC, standard serial dilution; format: cell-based; conditions: nutrient agar, 37° C., 17 hours, as free base
[31] = tested on: Pseudomonas aeruginosa K-Ps 102; assay: Antibacterial MIC, standard serial dilution; format: cell-based; conditions: nutrient agar, 37° C., 17 hours, as free base
[32] = tested on: Pseudomonas aeruginosa No. 12; assay: Antibacterial MIC, standard serial dilution; format: cell-based; conditions: nutrient agar, 37° C., 17 hours, as free base
[33] = tested on: Mycobacterium smegmatis ATCC 607; assay: Antibacterial MIC, standard serial dilution; format: cell-based; conditions: nutrient agar, 37° C., 17 hours, as free base

CNC[C@@H]1CC[C@@H](N)[C@@H](O[C@H]2[C@H](O)[C@H](N(C)C(=O)CN)[C@@H](OC)C[C@H]2N)O1 [B, istamycin B]
MIC [1]: 0.78 mg/L (≈ 2 µM) | MIC (Salmonella typhi T-63): 0.39 mg/L (≈ 1 µM) | MIC [2]: 3.13 mg/L (≈ 8.04 µM) | MIC [3]: 50 mg/L (≈ 128 µM) | MIC [4]: 3.13 mg/L (≈ 8.04 µM) | MIC (Serratia sp. SOU): 25 mg/L (≈ 64.2 µM) | MIC (Escherichia coli JR225): 1.56 mg/L (≈ 4.01 µM) | MIC [5]: 100 mg/L (≈ 257 µM) | MIC [6]: 50 mg/L (≈ 128 µM) | MIC [7]: 1.56 mg/L (≈ 4.01 µM) | MIC (Serratia marcescens): 1.56 mg/L (≈ 4.01 µM) | MIC [8]: 0.39 mg/L (≈ 1 µM) | MIC (Proteus vulgaris 0X19): 0.39 mg/L (≈ 1 µM) | MIC (Providencia sp. Pv16): 1.56 mg/L (≈ 4.01 µM) | MIC [9]: 1.56 mg/L (≈ 4.01 µM) | MIC [10]: 6.25 mg/L (≈ 16 µM) | MIC (Escherichia coli K-12): 0.78 mg/L (≈ 2 µM) | MIC [11]: 0.39 mg/L (≈ 1 µM) | MIC [12]: 0.39 mg/L (≈ 1 µM) | MIC [13]: 0.39 mg/L (≈ 1 µM) | MIC (Bacillus anthracis): 0.78 mg/L (≈ 2 µM) | MIC [14]: 50 mg/L (≈ 128 µM) | MIC [15]: 0.39 mg/L (≈ 1 µM) | MIC [16]: 3.13 mg/L (≈ 8.04 µM) | MIC [17]: 1.56 mg/L (≈ 4.01 µM) | MIC [18]: 1.56 mg/L (≈ 4.01 µM) | MIC [19]: 0.78 mg/L (≈ 2 µM) | MIC [20]: 1.56 mg/L (≈ 4.01 µM) | MIC (Serratia sp. 4): 50 mg/L (≈ 128 µM) | MIC [21]: 100 mg/L (≈ 257 µM) | MIC (Proteus rettgeri GN466): 0.78 mg/L (≈ 2 µM) | MIC (Sarcina lutea PCI 1001): 0.39 mg/L (≈ 1 µM) | MIC (Escherichia coli W677): 0.78 mg/L (≈ 2 µM) | MIC (Escherichia coli NIHJ): 0.39 mg/L (≈ 1 µM) | MIC [22]: 100 mg/L (≈ 257 µM) | MIC [23]: 50 mg/L (≈ 128 µM) | MIC [24]: 12.5 mg/L (≈ 32.1 µM) | MIC (Providencia sp. 2991): 3.13 mg/L (≈ 8.04 µM) | MIC [25]: 100 mg/L (≈ 257 µM) | MIC (Shigella sonnei JS11746): 0.78 mg/L (≈ 2 µM) | antibacterial activity (bacteria): higher antibacterial activity than istamycin A | MIC (Proteus rettgeri GN311): 0.78 mg/L (≈ 2 µM) | MIC [26]: 0.39 mg/L (≈ 1 µM) | MIC [27]: 3.13 mg/L (≈ 8.04 µM) | MIC [28]: 3.13 mg/L (≈ 8.04 µM) | MIC [29]: > 100 mg/L | MIC [30]: > 100 mg/L | MIC [31]: 50 mg/L (≈ 128 µM) | MIC [32]: 50 mg/L (≈ 128 µM) | MIC [33]: 0.78 mg/L (≈ 2 µM)

— patent publication US4479943A, “3-Demethoxyistamycin B, the 2"-N-formimidoyl derivative thereof and pharmaceutical composition containing same” (Zaidan Hojin Biseibutsu Kagaku Kenkyu Kai, priority 1982, dated 1984)
